Data from patent US8809341B2, “2,4-pyrimidinediamine compounds and uses as anti-proliferative agents” (Rigel Pharmaceuticals, Inc., priority 2003, dated 2014).

Tests used:
H1299 cells = assay: in vitro antiproliferation assay, H1299 (lung); format: cell-based; conditions: H1299 (lung) cells
Procedure, shortened: (§1)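 Standard in vitro antiproliferation assays on tumour cell lines, including A549 and H1299 (both lung); IC50 values determined.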

A549 cells = assay: in vitro antiproliferation assay, A549 (lung); format: cell-based; conditions: A549 (lung) cells
Procedure, shortened: as §1

| SMILES | IC50 (H1299 cells; in vitro antiproliferation) | IC50 (A549 cells; in vitro antiproliferation) | IC50 (H1299 cells; antiproliferation) | IC50 (A549 cells; antiproliferation) |
| --- | --- | --- | --- | --- |
| COc1cc(Nc2nc(Nc3cc(Cl)cc(Cl)c3)ncc2F)cc(C(F)(F)F)c1 [compound 823] | ≤ 20 µM | ≤ 20 µM | – | – |
| COc1cc(Nc2nc(Nc3cc(CO)cc(CO)c3)ncc2F)cc(C(F)(F)F)c1 [compound 824] | < 20 µM | ≤ 20 µM | – | – |
| COc1cc(Nc2nc(Nc3cc(C)c(Cl)c(C)c3)ncc2F)cc(C(F)(F)F)c1 [compound 825] | ≤ 20 µM | ≤ 20 µM | – | – |
| COc1ccc(Nc2nc(Nc3cc(Cl)c(O)c(Cl)c3)ncc2F)cc1Cl [compound 828] | ≤ 20 µM | ≤ 20 µM | – | – |
| Oc1c(Cl)cc(Nc2ncc(F)c(Nc3ccc(OC(F)(F)F)c(Cl)c3)n2)cc1Cl [compound 829] | ≤ 20 µM | ≤ 20 µM | – | – |
| COc1ccc(Nc2nc(Nc3cc(Cl)c(OC)c(Cl)c3)ncc2F)cc1Cl [compound 831] | > 20 µM | > 20 µM | – | – |
| COc1c(Cl)cc(Nc2ncc(F)c(Nc3ccc(OC(F)(F)F)c(Cl)c3)n2)cc1Cl [compound 832] | > 20 µM | ≤ 20 µM | – | – |
| COc1c(Cl)cc(Nc2ncc(F)c(Nc3ccc(Cl)c(Cl)c3)n2)cc1Cl [compound 834] | ≤ 20 µM | ≤ 20 µM | – | – |
| COc1cc(Nc2nc(Nc3cc(CO)cc(CO)c3)ncc2F)cc(OC)c1 [compound 842] | ≤ 20 µM | ≤ 20 µM | – | – |
| COc1ccc(Nc2nc(Nc3cc(CO)cc(CO)c3)ncc2F)cc1Cl [compound 843] | ≤ 20 µM | ≤ 20 µM | – | – |
| OCc1cc(CO)cc(Nc2ncc(F)c(Nc3ccc(Cl)c(Cl)c3)n2)c1 [compound 844] | ≤ 20 µM | ≤ 20 µM | – | – |
| COc1cc(Nc2nc(Nc3cc(OC)cc(C(F)(F)F)c3)ncc2F)cc(OC)c1 [compound 849] | ≤ 20 µM | ≤ 20 µM | – | – |
| CNC(=O)COc1cccc(Nc2ncc(F)c(N(C)c3cc(OC)cc(OC)c3)n2)c1 [compound 850] | > 20 µM | > 20 µM | – | – |
| COc1cc(Nc2ncc(F)c(N(C)c3cc(OC)cc(OC)c3)n2)cc(OC)c1 [compound 852] | ≤ 20 µM | ≤ 20 µM | – | – |
| COc1cc(OC)cc(N(C)c2nc(Nc3ccc(OC)c(Cl)c3)ncc2F)c1 [compound 853] | > 20 µM | > 20 µM | – | – |
| COc1cc(OC)cc(N(C)c2nc(Nc3ccc(Cl)c(OC)c3)ncc2F)c1 [compound 854] | > 20 µM | > 20 µM | – | – |
| COc1cc(Nc2ncc(F)c(Nc3ccc(OC)c(OC)c3)n2)cc(OC)c1 [compound 856] | ≤ 20 µM | ≤ 20 µM | – | – |

| SMILES | IC50 (H1299 cells; in vitro antiproliferation) | IC50 (A549 cells; in vitro antiproliferation) | IC50 (H1299 cells; antiproliferation) | IC50 (A549 cells; antiproliferation) |
| --- | --- | --- | --- | --- |
| COc1cc(Nc2nc(Nc3cccc(N4CCN(C(C)=O)CC4)c3)ncc2F)cc(OC)c1 [compound 861] | ≤ 20 µM | ≤ 20 µM | – | – |
| COc1ccc(Nc2nc(Nc3cccc(N4CCN(C(C)=O)CC4)c3)ncc2F)cc1OC [compound 862] | ≤ 20 µM | ≤ 20 µM | – | – |
| COc1ccc(Nc2nc(Nc3ccc(N4CCN(C(C)=O)CC4)cc3)ncc2F)cc1OC [compound 863] | ≤ 20 µM | ≤ 20 µM | – | – |
| COc1ccc(N(C)c2nc(Nc3cc(C)cc(C)c3)ncc2F)cc1OC [compound 864] | ≤ 20 µM | ≤ 20 µM | – | – |
| COc1cc(Nc2ncc(F)c(N(C)c3ccc(OC)c(OC)c3)n2)cc(OC)c1 [compound 865] | ≤ 20 µM | ≤ 20 µM | – | – |
| COc1cc(Nc2nc(Nc3ccc(N4CCN(C(C)=O)CC4)cc3)ncc2F)cc(OC)c1 [compound 866] | ≤ 20 µM | ≤ 20 µM | – | – |
| COc1ccc(N(C)c2nc(Nc3cccc(-c4cnco4)c3)ncc2F)cc1OC [compound 867] | ≤ 20 µM | > 20 µM | – | – |
| CNC(=O)COc1cccc(Nc2ncc(F)c(N(C)c3ccc(OC)c(OC)c3)n2)c1 [compound 870] | – | – | > 20 µM | > 20 µM |
| CNC(=O)c1ccc(Nc2ncc(F)c(Nc3ccc(OC)c(OC)c3)n2)cc1Cl [compound 871] | – | – | ≤ 20 µM | ≤ 20 µM |
| CNC(=O)c1ccc(Nc2ncc(F)c(Nc3cc(OC)cc(OC)c3)n2)cc1Cl [compound 872] | – | – | ≤ 20 µM | ≤ 20 µM |
| CNC(=O)c1ccc(Nc2ncc(F)c(N(C)c3ccc(OC)c(OC)c3)n2)cc1Cl [compound 875] | – | – | ≤ 20 µM | ≤ 20 µM |
| CNS(=O)(=O)c1ccc(Nc2ncc(F)c(Nc3ccc(OC)c(OC)c3)n2)cc1OC [compound 879] | – | – | ≤ 20 µM | ≤ 20 µM |
| CNS(=O)(=O)c1ccc(Nc2ncc(F)c(Nc3cc(OC)cc(OC)c3)n2)cc1OC [compound 880] | – | – | ≤ 20 µM | ≤ 20 µM |
| CNS(=O)(=O)c1ccc(Nc2nc(Nc3cc(OC)cc(OC)c3)ncc2F)cc1OC [compound 884] | – | – | ≤ 20 µM | ≤ 20 µM |
| Oc1cccc(Nc2nc(Nc3cccc(-c4ncco4)c3)ncc2F)c1 [compound 885] | – | – | ≤ 20 µM | ≤ 20 µM |
| COc1ccc(Nc2nc(Nc3cccc(-c4ncon4)c3)ncc2F)cc1OC [compound 886] | – | – | ≤ 20 µM | ≤ 20 µM |
| COC(=O)c1cc(Nc2ncc(F)c(Nc3ccc(OC)c(OC)c3)n2)cc(-c2ncco2)c1 [compound 887] | – | – | ≤ 20 µM | ≤ 20 µM |
